Holding throughout (type): in vitro ADME
Series [1] can be described thus: Microsomal stability assay, human liver microsomes. To be noted: for CLINT human: human liver microsomes 0.5 mg/mL, 1 μM compound; for CLHEP human: predicted hepatic clearance, human microsomes.
The nature of series [2]: Microsomal stability assay, mouse liver microsomes.
Series [3] is described as follows: Microsomal stability assay, rat liver microsomes. To be noted: for CLHEP rat: predicted hepatic clearance, rat microsomes; for CLINT rat: rat liver microsomes 0.5 mg/mL, 1 μM compound.
Setting [4] is: mouse liver microsomes 0.5 mg/mL, 1 μM compound.
Where [5] appears, read: predicted hepatic clearance, mouse microsomes.
Where [6] appears, read: male, CD-1, mouse, 1 μM, pH 7.4.

SMILES strings stand for the structures.

Consider `O=C(N[C@@H](Cn1ccnc1)c1ccc(Cl)cc1Cl)c1ccc(-c2nnc(-c3cccc(Br)c3)o2)cc1` [Compound 6, (R)-4-(5-(3-Bromophenyl)-1,3,4-oxadiazol-2-yl)-N-(1-(2,4-di-chlorophenyl)-2-(1H-imidazol-1-yl)ethyl)benzamide], for which, in series [1], the CLINT human turned out to be 9.47 mL/min/kg body weight and the CLHEP human is given as 6.53 mL/min/kg body weight. Besides, the CLINT mouse in series [2] (setting [4]) worked out at 126 mL/min/kg body weight. In addition, the CLHEP mouse in series [2] (setting [5]) is recorded as 55 mL/min/kg body weight. In series [3], the CLHEP rat is recorded as 19 mL/min/kg body weight and the CLINT rat is on record as 27 mL/min/kg body weight.

In the case of `O=C(N[C@@H](Cn1ccnc1)c1ccc(Cl)cc1Cl)c1ccc(-c2nnc(-c3ccc(-c4ccccn4)cc3F)o2)cc1` [Compound 12, (R)-N-(1-(2/4-Dichlorophenyl)-2-(1H-imidazol-1-yl)ethyl)-4-(5-(4-(3-fluoropyridin-2-yl)phenyl)-1,3,4-oxadiazol-2-yl)benzamide], in series [1], the CLINT human was 15 mL/min/kg body weight and the CLHEP human was 8.75 mL/min/kg body weight. The CLINT mouse in series [2] (setting [4]) stood at 36.5 mL/min/kg body weight. In addition, the CLHEP mouse in series [2] (setting [5]) is on record as 26.0 mL/min/kg body weight. In series [3], the CLHEP rat is recorded as 29.7 mL/min/kg body weight and the CLINT rat is on record as 51.6 mL/min/kg body weight.

With `O=C(N[C@@H](Cn1ccnc1)c1ccc(Cl)cc1Cl)c1ccc(-c2nnc(-c3ccc(Cl)c(Cl)c3)o2)cc1` [Compound 5, (R)-4-(5-(3,4-Dichlorophenyl)-1,3,4-oxadiazol-2-yl)-N-(1-(2,4-di-chlorophenyl)-2-(1H-imidazol-1-yl)ethyl)benzamide], in series [1], the CLINT human came out at 11.4 mL/min/kg body weight and the CLHEP human was 7.39 mL/min/kg body weight. In series [2] (setting [6]), this compound came in with a CLHEP mouse of 49 mL/min/kg body weight. This compound displayed a CLINT mouse in series [2] (mouse, microsomes) of 107 mL/min/kg body weight. Moreover, in series [3], the CLHEP rat was 35 mL/min/kg body weight and the CLINT rat is recorded as 70 mL/min/kg body weight.

On to `O=C(N[C@@H](Cn1ccnc1)c1ccc(Cl)cc1Cl)c1ccc(-c2nnc(-c3ccc(OCC(F)(F)F)cc3F)o2)cc1` [Compound 3, (R)-N-(1-(2,4-Dichlorophenyl)-2-(1H-imidazol-1-yl)ethyl)-4-(5-(2-fluoro-4-(2,2,2-trifluoroethoxy)phenyl)-1,3,4-oxadiazol-2-yl)-benzamide], for which, in series [1], the CLINT human worked out at 16.5 mL/min/kg body weight and the CLHEP human is reported as 9.24 mL/min/kg body weight. This compound also returned a CLINT mouse in series [2] (setting [4]) of 88 mL/min/kg body weight. The CLHEP mouse in series [2] (setting [5]) is reported as 44 mL/min/kg body weight. In series [3], the CLHEP rat is reported as 34 mL/min/kg body weight and the CLINT rat is 64 mL/min/kg body weight.

With `O=C(N[C@@H](Cn1ccnc1)c1ccc(Cl)cc1Cl)c1ccc(-c2nnc(-c3cccc(-c4ccccn4)c3)o2)cc1` [Compound 9, (R)-N-(1-(2,4-Dichlorophenyl)-2-(1H-imidazol-1-yl)ethyl)-4-(5-(3-(pyridin-2-yl)phenyl)-1,3,4-oxadiazol-2-yl)benzamide], in series [1], the CLINT human came to 13.1 mL/min/kg body weight and the CLHEP human was 8.06 mL/min/kg body weight. Besides, the CLHEP mouse in series [2] (setting [6]) amounted to 56 mL/min/kg body weight. Moreover, the CLINT mouse in series [2] (mouse, microsomes) is 152 mL/min/kg body weight. In addition, in series [3], the CLHEP rat was 35 mL/min/kg body weight and the CLINT rat is reported as 68 mL/min/kg body weight.

Consider `O=C(N[C@@H](Cn1ccnc1)c1ccc(Cl)cc1Cl)c1ccc(-c2nnc(-c3cc(F)cc(-c4ccccn4)c3)o2)cc1` [Compound 11, (R)-N-(1-(2,4-Dichlorophenyl)-2-(1H-imidazol-1-yl)ethyl)-4-(5-(3-fluoro-5-(pyridin-2-yl)phenyl)-1,3,4-oxadiazol-2-yl)benzamide], for which, in series [1], the CLINT human is recorded as 96.6 mL/min/kg body weight and the CLHEP human is reported as 17.3 mL/min/kg body weight. Moreover, in series [2] (setting [4]), the CLINT mouse is listed as 55.0 mL/min/kg body weight. In addition, the CLHEP mouse in series [2] (setting [5]) is on record as 34 mL/min/kg body weight. Further, in series [3], the CLHEP rat is given as 24.0 mL/min/kg body weight and the CLINT rat turned out to be 36.0 mL/min/kg body weight.

`O=C(N[C@@H](Cn1ccnc1)c1ccc(Cl)cc1Cl)c1ccc(-c2nnc(-c3cc(F)cc(-c4ncncc4F)c3)o2)cc1` [Compound 15, (R)-N-(1-(2,4-Dichlorophenyl)-2-(1H-imidazol-1-yl)ethyl)-4-(5-(3-fluoro-5-(5-fluoropyrimidin-4-yl)phenyl)-1,3,4-oxadiazol-2-yl)-benzamide]: in series [1], the CLINT human worked out at 14.9 mL/min/kg body weight and the CLHEP human is 8.37 mL/min/kg body weight. The compound further came in with a CLINT mouse in series [2] (setting [4]) of 104 mL/min/kg body weight. Also, in series [2] (setting [5]), the CLHEP mouse is given as 48.3 mL/min/kg body weight. Also, in series [3], the CLHEP rat was 19.5 mL/min/kg body weight and the CLINT rat is on record as 27.0 mL/min/kg body weight.

As to `O=C(N[C@@H](Cn1ccnc1)c1ccc(Cl)cc1Cl)c1ccc(-c2nnc(-c3cc(-c4ccccn4)ccc3F)o2)cc1` [Compound 13, (R)-N-(l-(2,4-Dichlorophenyl)-2-(TH-imidazol-l-yl)ethyl)-4-(5-(2-fluoro-5-(pyridin-2-yl)phenyl)-1,3,4-oxadiazol-2-yl)benzamide], in series [1], the CLINT human worked out at 10.2 mL/min/kg body weight and the CLHEP human was 6.85 mL/min/kg body weight. Moreover, the CLINT mouse in series [2] (setting [4]) was 238 mL/min/kg body weight. Also, the CLHEP mouse in series [2] (setting [5]) was 65 mL/min/kg body weight. For the same compound, in series [3], the CLHEP rat is 29.0 mL/min/kg body weight and the CLINT rat was 49.4 mL/min/kg body weight.

For `O=C(N[C@@H](Cn1ccnc1)c1ccc(Cl)cc1Cl)c1ccc(-c2nnc(-c3ccccc3)o2)cc1` [VNI, (R)-N-(1-(2,4-dichlorophenyl)-2-(1H−imidazol-1-yl)ethyl)-4-(5-phenyl-1,3,4-oxadiazol-2-yl)-benzamide, reference compound], in series [1], the CLINT human was found to be 8.31 mL/min/kg body weight and the CLHEP human is given as 5.95 mL/min/kg body weight. This compound also returned a CLINT mouse in series [2] (setting [4]) of 87 mL/min/kg body weight. Further, in series [2] (setting [5]), the CLHEP mouse is recorded as 44 mL/min/kg body weight. In addition, in series [3], the CLHEP rat was 19.2 mL/min/kg body weight and the CLINT rat was determined as 26.4 mL/min/kg body weight.

Turning to `O=C(N[C@@H](Cn1ccnc1)c1ccc(Cl)cc1Cl)c1ccc(-c2nnc(-c3cc(F)cc(OCC(F)(F)F)c3)o2)cc1` [Compound 4, (R)-N-(1-(2,4-Dichlorophenyl)-2-(1H-imidazol-1-yl)ethyl)-4-(5-(3-fluoro-5-(2,2,2-trifluoroethoxy)phenyl)-1,3,4-oxadiazol-2-yl)-benzamide], in series [1], the CLINT human amounted to 11.3 mL/min/kg body weight and the CLHEP human was 7.33 mL/min/kg body weight. In series [2] (setting [6]), this compound showed a CLHEP mouse of 43.6 mL/min/kg body weight. The CLINT mouse in series [2] (mouse, microsomes) was found to be 84.7 mL/min/kg body weight. In series [3], the CLHEP rat is recorded as 29 mL/min/kg body weight and the CLINT rat was 50.4 mL/min/kg body weight.

On to `O=C(N[C@@H](Cn1ccnc1)c1ccc(Cl)cc1Cl)c1ccc(-c2nnc(-c3ccc(-c4ccccn4)cc3)o2)cc1` [Compound 10, (R)-N-(1-(2,4-Dichlorophenyl)-2-(1H-imidazol-1-yl)ethyl)-4-(5-(4-(pyridin-2-yl)phenyl)-1,3,4-oxadiazol-2-yl)benzamide], for which, in series [1], the CLINT human was found to be 10.8 mL/min/kg body weight and the CLHEP human is 7.15 mL/min/kg body weight. This compound had a CLINT mouse in series [2] (setting [4]) of 95 mL/min/kg body weight. The CLHEP mouse in series [2] (setting [5]) is 46 mL/min/kg body weight. In addition, in series [3], the CLHEP rat was 40 mL/min/kg body weight and the CLINT rat is on record as 94 mL/min/kg body weight.

Regarding `O=C(N[C@@H](Cn1ccnc1)c1ccc(Cl)cc1Cl)c1ccc(-c2nnc(-c3ccc(C(F)(F)F)c(F)c3)o2)cc1` [Compound 2, (R)-N-(1-(2,4-Dichlorophenyl)-2-(1H-imidazol-1-yl)ethyl)-4-(5-(3-fluoro-4-(trifluoromethyl)phenyl)-1,3,4-oxadiazol-2-yl)benzamide], in series [1], the CLINT human turned out to be 6.06 mL/min/kg body weight and the CLHEP human is given as 4.07 mL/min/kg body weight. The compound also came in with a CLINT mouse in series [2] (setting [4]) of 60 mL/min/kg body weight. The CLHEP mouse in series [2] (setting [5]) is 36 mL/min/kg body weight. Besides, in series [3], the CLHEP rat is listed as 24 mL/min/kg body weight and the CLINT rat is on record as 36 mL/min/kg body weight.

Regarding `O=C(N[C@@H](Cn1ccnc1)c1ccc(Cl)cc1Cl)c1ccc(-c2nnc(-c3ccc(F)c(F)c3)o2)cc1` [Compound 1, (R)-N-(1-(2,4-Dichlorophenyl)-2-(1H-imidazol-1-yl)ethyl)-4-(5-(3,4-difluorophenyl)-1,3,4-oxadiazol-2-yl)benzamide], in series [1], the CLINT human was determined as 7.53 mL/min/kg body weight and the CLHEP human is recorded as 5.54 mL/min/kg body weight. Also, the CLINT mouse in series [2] (setting [4]) turned out to be 55 mL/min/kg body weight. The CLHEP mouse in series [2] (setting [5]) is recorded as 34 mL/min/kg body weight. Also, in series [3], the CLHEP rat was 21 mL/min/kg body weight and the CLINT rat amounted to 31 mL/min/kg body weight.

As to `CS(=O)(=O)c1ccc(-c2nnc(-c3ccc(C(=O)N[C@@H](Cn4ccnc4)c4ccc(Cl)cc4Cl)cc3)o2)cc1Cl` [Compound 14, (R)-4-(5-(3-Chloro-4-(methylsulfonyl)phenyl)-1,3,4-oxadiazol-2-yl)-N-(1-(2,4-dichlorophenyl)-2-(1H-imidazol-1-yl)ethyl)benzamide], in series [1], the CLINT human is 9.31 mL/min/kg body weight and the CLHEP human is listed as 6.45 mL/min/kg body weight. For the same compound, the CLHEP mouse in series [2] (setting [6]) stood at 34.5 mL/min/kg body weight. The same compound gave a CLINT mouse in series [2] (mouse, microsomes) of 56 mL/min/kg body weight. In addition, in series [3], the CLHEP rat is 42 mL/min/kg body weight and the CLINT rat was 104 mL/min/kg body weight.

These data come from article PMC6176729 (Journal of medicinal chemistry, 2018).
